Measurements from patent publication US11591336B2 (Relay Therapeutics, Inc., priority 2017, dated 2023).
Counter-ions that a name gives are not always drawn.

Molecular target: SHP2 (Homo sapiens (Human), UniProt Q06124)
Assay: SHP2 Allosteric Inhibition Assay (DiFMUP prompt fluorescence)
Type: biochemical
Conditions: 0.25 nM SHP2 activated with 0.5 μM peptide IRS1_pY1172(dPEG8)pY1222; substrate DiFMUP 100 μM; 25° C.

| IC50 | Compound |
| --- | --- |
| < 1000 nM | CC1(N)CCN(c2cnc3c(Oc4cccnc4Cl)n[nH]c3n2)CC1 [Compound 510, 1-(3-((2-chloropyridin-3-yl)oxy)-1H-pyrazolo[3,4-b]pyrazin-6-yl)-4-methylpiperidin-4-amine] |
| < 1000 nM | C[C@@H]1OCC2(CCN(c3cnc4c(N5CCCc6c(CN7CCOCC7)cccc65)n[nH]c4n3)CC2)[C@@H]1N [Compound 458] |
| < 1000 nM | Cn1ccc(Sc2n[nH]c3nc(N4CCC(C)(CN)CC4)cnc23)cc1=O [Compound 511, 4-((6-(4-(aminomethyl)-4-methylpiperidin-1-yl)-1H-pyrazolo[3,4-b]pyrazin-3-yl)thio)-1-methylpyridin-2(1H)-one] |
| < 1000 nM | C[C@@H]1OCC2(CCN(c3cnc4c(N5CCN(C67CC(F)(C6)C7)c6cc(C#N)ccc65)n[nH]c4n3)CC2)[C@@H]1N [Compound 532] |
| < 1000 nM | NCC1(CN)CCN(c2cnc3c(N4CCCc5ncccc54)n[nH]c3n2)CC1 [Compound 177, 1-[4-(aminomethyl)-1-[3-(1,2,3,4-tetrahydro-1,5-naphthyridin-1-yl)-1H-pyrazolo[3,4-b]pyrazin-6-yl]piperidin-4-yl]methanamine dihydrochloride] |
| < 1000 nM | CCC(=O)N1CCN(c2n[nH]c3nc(N4CCC5(CC4)CO[C@@H](C)[C@H]5N)cnc23)c2ccccc21 [Compound 360] |
| < 1000 nM | C[C@@H]1OCC2(CCN(c3cnc4c(N5CCCc6c5ccc(C#N)c6[C@H]5CCCO5)n[nH]c4n3)CC2)[C@@H]1N [Compound 524] |
| < 1000 nM | N[C@H]1COCC12CCN(c1cnc3c(N4CCCc5ncccc54)n[nH]c3n1)CC2 [Compound 213] |
| < 1000 nM | C[C@@H]1OCC2(CCN(c3cnc4c(N5CCCc6c5ccc(C#N)c6[C@@H]5CCCO5)n[nH]c4n3)CC2)[C@@H]1N [Compound 522] |
| < 1000 nM | C[C@@H]1OCC2(CCN(c3cnc4c(N5CCCc6nc(-c7cnn(C(F)F)c7)ccc65)n[nH]c4n3)CC2)[C@@H]1N [Compound 317] |
| < 1000 nM | C[C@@H]1OCC2(CCN(c3cnc4c(N5CCCc6c([C@@H]7CCOC7)cccc65)n[nH]c4n3)CC2)[C@@H]1N [Compound 401] |
| < 1000 nM | C[C@@H]1CCN(c2n[nH]c3nc(N4CCC5(CC4)CO[C@@H](C)[C@H]5N)cnc23)c2cc(F)cnc21 (single isomer, unassigned) [Compound 262, hydrochloride] |
| < 1000 nM | C[C@@H]1CCN(c2n[nH]c3nc(N4CCC5(CC4)CO[C@@H](C)[C@H]5N)cnc23)c2ccc(-c3ccn[nH]3)nc21 [Compound 432] |
| < 1000 nM | C[C@@H]1OCC2(CCN(c3cnc4c(N5CCCc6nc(Oc7cnn(C)c7)ccc65)n[nH]c4n3)CC2)[C@@H]1N [Compound 314] |
| < 1000 nM | Cc1nccc(Oc2n[nH]c3nc(N4CCC(C)(CN)CC4)cnc23)c1Cl [Compound 504, (1-(3-((3-chloro-2-methylpyridin-4-yl)oxy)-1H-pyrazolo[3,4-b]pyrazin-6-yl)-4-methylpiperidin-4-yl)methanamine] |
| < 1000 nM | C[C@@H]1OCC2(CCN(c3cnc4c(N5CCCc6c(C(=O)O)cccc65)n[nH]c4n3)CC2)[C@@H]1N [Compound 244, 1-(6-((3S,4S)-4-amino-3-methyl-2-oxa-8-azaspiro[4.5]decan-8-yl)-1H-pyrazolo[3,4-b]pyrazin-3-yl)-1,2,3,4-tetrahydroquinoline-5-carboxylic Acid] |
| < 1000 nM | C[C@@H]1OCC2(CCN(c3cnc4c(N5CCNc6nc(-c7cnn(C)c7)ccc65)n[nH]c4n3)CC2)[C@@H]1N [Compound 296, (3S,4S)-3-methyl-8-(3-(6-(1-methyl-1H-pyrazol-4-yl)-3,4-dihydropyrido[2,3-b]pyrazin-1(2H)-yl)-1H-pyrazolo[3,4-b]pyrazin-6-yl)-2-oxa-8-azaspiro[4.5]decan-4-amine] |
| < 1000 nM | C[C@@H]1OCC2(CCN(c3cnc4c(N5CCN(C)c6nc(Cl)ccc65)n[nH]c4n3)CC2)[C@@H]1N [Compound 377] |
| < 1000 nM | C[C@@H]1OCC2(CCN(c3cnc4c(N5CCCc6c5ccnc6S(C)(=O)=O)n[nH]c4n3)CC2)[C@@H]1N [Compound 416] |
| < 1000 nM | COC(=O)n1nc(N2CCCc3ncccc32)c2ncc(N3CCC4(CC3)CO[C@@H](C)[C@H]4N)nc21 [Compound 253, methyl 6-[(3S,4S)-4-amino-3-methyl-2-oxa-8-azaspiro[4.5]decan-8-yl]-3-(1,2,3,4-tetrahydro-1,5-naphthyridin-1-yl)-1H-pyrazolo[3,4-b]pyrazine-1-carboxylate hydrochloride] |
| 1000 to 10000 nM | N[C@@H]1CCC[C@]12CCN(c1cnc3c(N4CCCc5ncccc54)n[nH]c3n1)C2 (stereo in doubt) [Compound 204, rel-(5R,6R)-2-(3-(3,4-dihydro-1,5-naphthyridin-1(2H)-yl)-1H-pyrazolo[3,4-b]pyrazin-6-yl)-2-azaspiro[4.4]nonan-6-amine] |
| < 1000 nM | N[C@@H]1CC(O)CC12CCN(c1cnc3c(N4CCCc5ncccc54)n[nH]c3n1)CC2 (stereo in doubt) [Compound 468, (2R,4R)-4-amino-8-(3-(3,4-dihydro-1,5-naphthyridin-1(2H)-yl)-1H-pyrazolo[3,4-b]pyrazin-6-yl)-8-azaspiro[4.5]decan-2-ol] |
| < 1000 nM | C[C@@H]1OCC2(CCN(c3cnc4c(N5CC[C@H](C)c6nc(-c7ncon7)ccc65)n[nH]c4n3)CC2)[C@@H]1N (single isomer, unassigned) [Compound 370] |
| < 1000 nM | C[C@@H]1OCC2(CCN(c3cnc4c(N5CC[C@H](C)c6nc(-c7cnn(C)c7)ccc65)n[nH]c4n3)CC2)[C@@H]1N [Compound 284, (3S,4S)-3-methyl-8-{3-[(4S)-4-methyl-6-(1-methyl-1H-pyrazol-4-yl)-1,2,3,4-tetrahydro-1,5-naphthyridin-1-yl]-1H-pyrazolo[3,4-b]pyrazin-6-yl}-2-oxa-8-azaspiro[4.5]decan-4-amine] |
| < 1000 nM | C[C@@H]1OCC2(CCN(c3cnc4c(N5CC[C@H](C)c6c5ccc(C#N)c6F)n[nH]c4n3)CC2)[C@@H]1N (single isomer, unassigned) [Compound 230] |
| < 1000 nM | CC1(CN)CCN(c2cnc3c(N4CCNc5ccccc54)n[nH]c3n2)CC1 [Compound 190] |
| < 1000 nM | CO[C@H]1C[C@H](N2CCN(c3n[nH]c4nc(N5CCC6(CC5)CO[C@@H](C)[C@H]6N)cnc34)c3ccc(C#N)cc32)C1 [Compound 470] |

The remaining lines, values behind:

| Compound | IC50 |
| --- | --- |
| CC1(CN)CCN(c2cnc3c(N4CCCc5c(C#N)cccc54)n[nH]c3n2)CC1 [Compound 87] | < 1000 nM |
| Cn1nc(Sc2ccncc2)c2ncc(N3CCC(C)(N)CC3)nc21 [Cmpd 487] | ≥ 10000 nM |
| CC1(CN)CCN(c2cnc3c(N4CCCc5c(-c6cc(F)c(F)c(F)c6)cccc54)n[nH]c3n2)CC1 [Compound 72] | < 1000 nM |
| C[C@H]1CCc2ccccc2N1c1n[nH]c2nc(N3CCC(C)(N)CC3)cnc12 [Compound 35] | < 1000 nM |
| CC1CCN(c2n[nH]c3nc(N4CCC(C)(CN)CC4)cnc23)c2ccc(C#N)cc21 (centres unmarked) [Compound 93] | < 1000 nM |
| C[C@H]1Cc2ccccc2N1c1n[nH]c2nc(N3CCC(C)(CN)CC3)cnc12 [Compound 134] | < 1000 nM |
| CCC1CCN(c2n[nH]c3nc(N4CCC(C)(CN)CC4)cnc23)c2ccccc21 (single isomer, unassigned) [Compound 102, hydrochloride] | < 1000 nM |
| c1ccc(CC2CCCCN2c2cnc3c(N4CCCc5ncccc54)n[nH]c3n2)cc1 (centres unmarked) [Compound 161] | ≥ 10000 nM |
| C[C@@H]1C[C@H](O)CCN1c1cnc2c(N3CCCc4ncccc43)n[nH]c2n1 (racemic) [Compound 95, (2R,4R)-1-(3-(3,4-dihydro-1,5-naphthyridin-1(2H)-yl)-1H-pyrazolo[3,4-b]pyrazin-6-yl)-2-methylpiperidin-4-ol] | ≥ 10000 nM |
| C[C@H]1CCN(c2n[nH]c3nc(N4CCC(C)(CN)CC4)cnc23)c2ccccc21 [Compound 50, (S)-(4-methyl-1-(3-(4-methyl-3,4-dihydroquinolin-1(2H)-yl)-1H-pyrazolo[3,4-b]pyrazin-6-yl)piperidin-4-yl)methanamine] | < 1000 nM |
| NC[C@@H]1C[C@H]2CC[C@@H](C1)N2c1cnc2c(N3CCCc4ncccc43)n[nH]c2n1 [Compound 150] | < 1000 nM |
| CC1(N)CCN(c2cnc3c(N4CCc5ccccc54)n[nH]c3n2)CC1 [Compound 21] | < 1000 nM |
| CC1(C)CCN(c2cnc3c(N4CCCc5ncccc54)n[nH]c3n2)CC1 [Compound 141] | ≥ 10000 nM |
| NC1CCOC12CCN(c1cnc3c(N4CCCc5ncccc54)n[nH]c3n1)CC2 (centres unmarked) [Compound 55, 8-(3-(3,4-dihydro-1,5-naphthyridin-1(2H)-yl)-1H-pyrazolo[3,4-b]pyrazin-6-yl)-1-oxa-8-azaspiro[4.5]decan-4-amine] | < 1000 nM |
| CC1(N)CCN(c2cnc3c(N4CCCc5cc(C(N)=O)ccc54)n[nH]c3n2)CC1 [Compound 54, 1-(6-(4-amino-4-methylpiperidin-1-yl)-1H-pyrazolo[3,4-b]pyrazin-3-yl)-1,2,3,4-tetrahydroquinoline-6-carboxamide] | < 1000 nM |
| NC[C@H]1CCN(c2cnc3c(N4CCCc5ncccc54)n[nH]c3n2)[C@@H](Cc2ccccc2)C1 (racemic) [Compound 159] | 1000 to 10000 nM |
| CC1(CN)CCN(c2cnc3c(Nc4ccccc4Cl)n[nH]c3n2)CC1 [Compound 11, 6-(4-(aminomethyl)-4-methylpiperidin-1-yl)-N-(2-chlorophenyl)-1H-pyrazolo[3,4-b]pyrazin-3-amine] | < 1000 nM |
| CC1(N)CCN(c2cnc3c(N4C(=O)CCc5ncccc54)n[nH]c3n2)CC1 [Compound 39, 1-(6-(4-amino-4-methylpiperidin-1-yl)-1H-pyrazolo[3,4-b]pyrazin-3-yl)-3,4-dihydro-1,5-naphthyridin-2(1H)-one] | 1000 to 10000 nM |
| CC1(N)CCN(c2cnc3c(N4CCCc5c(-c6cccnc6)cccc54)n[nH]c3n2)CC1 [Compound 60] | < 1000 nM |
| CC1(N)CCN(c2cnc3c(N4CCCc5c(-c6ccccn6)cccc54)n[nH]c3n2)CC1 [Compound 59] | < 1000 nM |
